Legend:
Assay type in all cases: in vivo, healthy adult subjects
[1] = Phase 1 single ascending dose study: plasma pharmacokinetics of syn-ACTH
Description: (§1) Subjects who met all of the inclusion criteria and none of the exclusion criteria were enrolled in the study. Safety and tolerability were evaluated throughout the study, including all adverse events (AEs); physical examination findings; vital sign measurements; 12-lead electrocardiogram (ECG) findings; standard clinical laboratory measurements (eg, serum chemistry, hematology, and urinalysis); and injection site evaluations. Immunogenicity, as measured by antidrug antibodies (ADA) were evaluated. PD effects were assessed based on levels of cortisol and an adrenal panel of intermediates (dehydroepiandrosterone [DHA], 17-hydroxypregnenolone, and 17 hydroxyprogesterone). Blood samples for measurement of syn-ACTH concentrations were also collected (AMZ002 cohorts only).
Blood samples were collected prior to dosing on Day 1; at 5, 15, 30, and 45 minutes postdose; and at 1, 1.5, 2, 2.5, 3, 4, 5, 6, 8, 10, 12, 24, 30, 36, and 48 hours postdose.
The following plasma PK (pharmacokinetics) parameters of syn-ACTH were calculated from individual syn-ACTH concentration data for each cohort: • Maximum plasma concentration (Cmax) if the maximum value occurred at more than 1 time point, Cmax was defined as the first value; • Time to Cmax (Tmax); • Terminal elimination constant rate (λz); • Terminal elimination half-life (t1/2), calculated as ln(2)/λz; • AUC from time 0 to the last quantifiable plasma concentration (Clast) (AUClast); • AUC from time 0 to infinity (AUCinf);
Proportion of AUCinf due to extrapolation (%)(AUCextr), calculated as 100×(Clast/λz)/AUCinf; • Apparent clearance (CL/F); calculated as Dose/AUCinf; and • Apparent volume of distribution (Vz/F), calculated as Dose/[λz×AUCinf].

[2] = Phase 1 single ascending dose study: safety and tolerability; details: for safety and tolerability: single IM doses 0.15 mg to 0.75 mg
Description: as §1
Safety parameters included all AEs; physical examination findings; vital sign measurements; 12-lead ECG findings; standard clinical laboratory measurements (eg, serum chemistry, hematology, and urinalysis); and injection site evaluations.

[3] = test system: cortisol and an adrenal panel of intermediates (DHA, 17-hydroxypregnenolone, 17-hydroxyprogesterone); assay: Phase 1 single ascending dose study: pharmacodynamics (plasma cortisol and adrenal panel of intermediates)
Description: This was a Phase 1, single-blind, active-controlled, single ascending dose study to compare the PD effects of the investigational drug AMZ002 with those of H.P. Acthar Gel and Cortrosyn in healthy adult subjects. AMZ002 is a sterile solution for IM injection, formulated to contain 0.5 mg/mL ACTH having the sequence […] Phe, 50 mg/mL dextrose, 10 mg/mL sodium carboxymethylcellulose, and 5 mg/mL phenol (pH 6.4). The concentration of 0.5 mg/mL was chosen to reduce possible errors resulting from the preparation of small dose volumes (e.g., less than 0.4 ml).
The study consisted of 8 cohorts, with 8 subjects per cohort (each a single dose): Cortrosyn 0.25 mg; H.P. Acthar Gel 25 U; or, in an ascending dose fashion, AMZ002 0.15, 0.20, 0.25, 0.30, 0.50, or 0.75 mg. The investigational product (AMZ002) and active comparators (Cortrosyn and H.P. Acthar Gel) were administered via intramuscular (IM) injection to the upper arm. The dose of Cortrosyn (0.25 mg by IM administration), the active control, was intended to produce maximal adrenal stimulation. This is the standard dose for adults and children ≥2 years of age recommended in the 2015 Endocrine Society Clinical Practice Guidelines for diagnostic testing of adrenal insufficiency (same dose whether Cortrosyn is administered intravenously or IM). […] Since 25 U of natural ACTH was expected to elicit […] adrenal response, it was considered the most sensitive dose to determine a pharmacodynamically equivalent dose of AMZ002 in this study. Therefore, this study included a cohort of subjects who received a single dose of 25 U H.P. Acthar Gel (representing the target PD for the investigational drug product in this study).
On Day-1, a single standard dose of dexamethasone (1 mg) was administered orally at approximately midnight (8 hours prior to study drug administration the following day) to suppress endogenous adrenocorticotropic hormone (ACTH) production and remove this as a confounding variable in the measurements. […]
For each PD (pharmacodynamics) analyte (plasma cortisol and an adrenal panel of intermediates [DHA, 17-hydroxypregnenolone, and 17-hydroxyprogesterone]), the following parameters were calculated with the actual time points using a noncompartmental method as appropriate: • Maximum observed PD measurement (Emax); • Time to reach maximum observed PD measurement (TEmax); and • Area under the PD effect-time curve from time 0 to the last quantifiable PD measurement (AUEC0−t).
The PD parameters using baseline-corrected PD measurements were calculated similarly, if applicable. […] The following parameters were also calculated using baseline-corrected PD measurements: • Area under the PD effect-time curve that was above baseline (AUECabove B); and • Total time that response was≥baseline (Timeabove B). […]

[4] = Phase 1 single ascending dose study: immunogenicity (antidrug antibodies); details: single IM dose; consistent with that observed for H.P. Acthar Gel
Description: as §1
Blood samples for evaluation of immunogenicity as measured by ADA were obtained at the Treatment Visit (Day 1) (predose), prior to discharge (Day 3), the Follow-Up Visit (Day 8 [+2 days])/Early Termination Visit, and subsequent visits for collection of ADA (Day 15 [+2 days] and Day 29 [+2 days]).

Which half-life ([1]; human, plasma, single IM dose, range across dose cohorts, read-out: mean t½) does the source give for “H-SYSMEHFRWGKPVGKKRRPVKVYPNGAEDELAEAFPLEF-OH [AMZ002]” here?
Its half-life is 0.911 to 2.59 h.

What about the Tmax ([1]; human, plasma, single IM dose, range across dose cohorts, read-out: median Tmax) of the same substance?
Its Tmax is 0.08 to 2 h.

What about the absorption ([1]; single IM dose) of the same substance?
Its absorption is “rapidly absorbed”.

And the “time to mean peak plasma concentrations after dosing” value ([1]; single IM dose)?
Its value is at most 2 h.

And the “increase of exposure with increase in dose” value ([1]; single IM dose 0.15 to 0.75 mg)?
The value was “greater than proportional”.

What about the “deaths, treatment-emergent SAEs, withdrawals due to a TEAE” value ([2]; single IM doses) of the same substance?
Its value is “no deaths, treatment-emergent serious adverse events (SAEs), or withdrawals due to a treatment emergent adverse event (TEAE)”.

And the “severity of TEAEs” value ([2]; single IM doses)?
The value was “mild or moderate”.

What about the safety and tolerability [2] of the same substance?
The safety and tolerability was “safe and well tolerated”.

What about the safety and tolerability ([2]; listed as ACTH having SEQ ID NO:1) of the same substance?
Its safety and tolerability is “generally safe and well tolerated”.

What about the “cortisol response compared to 25 U H.P. Acthar Gel, highest levels” value ([3]; highest dose levels within 0.15 to 0.75 mg, single IM dose, FIG. 1) of the same substance?
Its value is “slightly greater and more sustained effects”.

What about the “cortisol response compared to 25 U H.P. Acthar Gel, lowest levels” value ([3]; lowest dose levels within 0.15 to 0.75 mg, single IM dose, FIG. 1) of the same substance?
The value was “maximal effect that is less sustained”.

What about the “DHA response, lower levels compared to higher levels” value ([3]; single IM dose 0.15 to 0.75 mg, FIG. 2) of the same substance?
The value was “maximal effect that is less sustained”.

And the “17-hydroxypregnenolone response, lower levels compared to higher levels” value ([3]; single IM dose 0.15 to 0.75 mg, FIG. 3)?
The value was “maximal effect that is less sustained”.

What about the “incidence of antibody formation (minimum of 1 positive postdose result)” value [4] of the same substance?
Its value is “low”.

Source: patent US20240033328A1, “ACTH IN THE TREATMENT OF AN ADRENOCORTICOTROPIC HORMONE RESPONSIVE PEDIATRIC DISORDER” (Amzell B.V., priority 2020, published 2024)
